AC50 data for 7 compounds are collected here from patent US20260138961A1, “MODULATORS OF MITOCHONDRIAL DNA REPLICATION” (Pretzel Therapeutics, Inc., priority 2022, published 2026).

Some results are limits rather than exact numbers.

This assay has as its target T1, POLγA:R309C (Homo sapiens, UniProt P54098, R309C).
T1 sequence (P54098 1-1239 R309C): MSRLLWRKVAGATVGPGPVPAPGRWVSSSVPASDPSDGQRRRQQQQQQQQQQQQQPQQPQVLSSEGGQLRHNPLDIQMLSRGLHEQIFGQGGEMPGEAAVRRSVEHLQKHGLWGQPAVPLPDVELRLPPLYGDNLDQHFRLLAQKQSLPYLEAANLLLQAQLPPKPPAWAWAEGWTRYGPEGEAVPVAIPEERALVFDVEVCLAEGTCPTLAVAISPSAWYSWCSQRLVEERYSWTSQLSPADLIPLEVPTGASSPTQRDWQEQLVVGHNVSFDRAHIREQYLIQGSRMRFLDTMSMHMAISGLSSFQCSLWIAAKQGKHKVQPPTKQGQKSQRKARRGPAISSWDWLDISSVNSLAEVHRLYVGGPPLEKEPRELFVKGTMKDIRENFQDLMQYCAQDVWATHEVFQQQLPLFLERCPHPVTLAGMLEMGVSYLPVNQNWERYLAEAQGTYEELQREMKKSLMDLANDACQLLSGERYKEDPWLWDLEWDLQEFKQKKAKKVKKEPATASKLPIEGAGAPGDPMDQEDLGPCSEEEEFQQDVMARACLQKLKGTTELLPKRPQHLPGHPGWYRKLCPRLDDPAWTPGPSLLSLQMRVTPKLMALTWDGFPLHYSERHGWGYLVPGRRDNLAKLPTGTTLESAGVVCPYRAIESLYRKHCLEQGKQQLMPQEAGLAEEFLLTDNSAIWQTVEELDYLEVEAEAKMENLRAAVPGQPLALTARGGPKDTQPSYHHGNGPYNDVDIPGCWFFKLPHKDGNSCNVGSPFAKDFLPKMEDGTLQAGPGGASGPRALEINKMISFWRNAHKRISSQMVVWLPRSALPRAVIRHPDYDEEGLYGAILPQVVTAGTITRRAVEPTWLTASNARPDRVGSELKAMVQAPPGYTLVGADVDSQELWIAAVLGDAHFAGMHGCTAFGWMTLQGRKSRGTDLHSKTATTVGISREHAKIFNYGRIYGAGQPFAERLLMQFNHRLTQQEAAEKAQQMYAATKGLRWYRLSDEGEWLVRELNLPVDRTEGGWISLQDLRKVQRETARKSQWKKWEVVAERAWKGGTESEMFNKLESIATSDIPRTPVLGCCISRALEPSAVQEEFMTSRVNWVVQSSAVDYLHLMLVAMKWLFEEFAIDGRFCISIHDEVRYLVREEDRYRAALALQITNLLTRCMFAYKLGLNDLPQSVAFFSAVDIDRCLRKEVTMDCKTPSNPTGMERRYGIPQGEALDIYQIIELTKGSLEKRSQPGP
T1 sequence (Q9UHN1 1-485 partner): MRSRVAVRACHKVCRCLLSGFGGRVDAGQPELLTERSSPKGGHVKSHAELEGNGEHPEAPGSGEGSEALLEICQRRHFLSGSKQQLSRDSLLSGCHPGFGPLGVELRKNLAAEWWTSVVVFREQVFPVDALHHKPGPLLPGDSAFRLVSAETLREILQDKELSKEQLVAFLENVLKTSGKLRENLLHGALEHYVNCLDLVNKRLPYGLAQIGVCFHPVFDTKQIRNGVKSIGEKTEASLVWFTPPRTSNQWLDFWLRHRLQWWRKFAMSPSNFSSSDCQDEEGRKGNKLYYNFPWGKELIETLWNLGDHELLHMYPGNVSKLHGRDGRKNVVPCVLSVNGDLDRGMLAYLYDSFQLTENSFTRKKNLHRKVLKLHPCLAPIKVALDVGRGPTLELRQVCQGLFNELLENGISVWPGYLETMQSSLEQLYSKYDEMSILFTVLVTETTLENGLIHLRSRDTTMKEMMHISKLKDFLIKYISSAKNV
The assay can be described thus: DNA polymerization assay, POLγA:R309C mutant. Type of assay: biochemical. The following applies: stimulation of polymerase activity, primed M13mp18 ssDNA, 37° C. 2 hours. The protocol: DNA Polymerization Assay to Monitor Effects on Human Wildtype POLγ and Four Disease-Causing Mutant Variants of Human POLγ.
The ability of small molecules to stimulate the polymerase activity of POLγ was analyzed in a quantitative fluorescence SYBR Green I assay with fluorescence intensity (FI) readout.
In the presence of dNTPs, wild type human POLγ and mutant derivatives thereof were incubated with single-stranded, circular M13mp18 ssDNA hybridized to a short DNA oligonucleotide that functions as a primer for initiation of DNA synthesis. POLγ and mutant derivatives thereof will extend the primer and use the M13mp18 molecule as a template to synthesize long stretches of double-stranded DNA. SYBR Green I, which is a double-stranded DNA-binding dye, was used to quantify formation of double-stranded DNA in the reaction. When bound to double-stranded DNA, SYBR Green I fluorescence increases by up to 100-fold.
The assay was performed in the 384-well plate format. Upon addition of compounds, changes in double-stranded DNA synthesis activity can be monitored by following effects on fluorescent intensity.
The reactions also contained the accessory POLγB subunit, and the human mitochondrial single-stranded DNA binding protein (mtSSB).
The DNA template mixture used in the assay contained 0.5 nM primed M13 mp18 ssDNA, 400 nM mtSSB, 0.1 mM Tris-HCl (pH 8.0), 0.1 mM dNTP, 10 mM MgCl2, 0.1 mg/mL BSA, 1 mM TCEP solution, and 0.02% Triton X-100. The DNA template mixture for the wild type protein contained either 100 μM dNTP, 1 μM dNTP, or 0.1 μM dNTP, designated in Table 2 as 100 μM, 1 μM, and 0.1 μM, respectfully.
Microplates with compounds (0.1 μL in each well) to be tested in the assay were prepared from 10 mM compound stocks in 100% DMSO, and equal amounts of DMSO without any compound were added to positive and negative control wells.
The protein mixture was dispensed (5 μL into each well) into compound plates and incubated at 37° C. for 15 minutes. After incubation, 5 μL of the DNA template mixture was dispensed into each well. The plates were then incubated at 37° C. for 2 hours.
During incubation, a combined stop buffer and detection reagent solution was prepared. The buffer contained 25 mM EDTA (pH 8.0), 0.02% Triton X-100, and SYBR Green I [Invitrogen] diluted 10,000× (for fluorescent readout). EDTA will stop the enzymatic reaction by chelating magnesium ions.
In general, AC50 refers to the concentration giving half of the maximal activity seen. The compound `Cc1cc(S(=O)(=O)Nc2ccc3ccn(C)c3c2)c(C)cc1Cl` [Example 72, 4-chloro-2,5-dimethyl-N-(1-methyl-1H-indol-6-yl)benzenesulfonamide] had an AC50 of 30 µM.

As for `Cc1nc2ccc(NS(=O)(=O)c3cc(C)c(Cl)cc3C)cc2s1` [Example 73, 4-chloro-2,5-dimethyl-N-(2-methylbenzo[d]thiazol-6-yl)benzenesulfonamide], the concentration at half-maximal activity (AC50) came out at 1 µM. Against the preceding compound, the AC50 is about 30-fold lower.

`Cc1cc(S(=O)(=O)Nc2cccc(-c3ncc(C4CC4)s3)c2)c(C)cc1Cl` [Example 76, 4-chloro-N-(3-(5-cyclopropylthiazol-2-yl)phenyl)-2,5-dimethylbenzenesulfonamide] displayed an AC50 of 6 µM.

For the compound `Cc1csc(-c2ccccc2NS(=O)(=O)c2cc(C)c(Cl)cc2C)n1` [Example 80, 4-chloro-2,5-dimethyl-N-(2-(4-methylthiazol-2-yl)phenyl)benzenesulfonamide], the AC50 is above 100 µM.

`Cc1cc(S(=O)(=O)Nc2csc(-c3ccccc3)n2)c(C)cc1Cl` [Example 81, 4-chloro-2,5-dimethyl-N-(2-phenylthiazol-4-yl)benzenesulfonamide] gave an AC50 of 0.6 µM.

Take `Cc1cc(S(=O)(=O)Nc2cccc(-c3ncc(CN(C)C)s3)c2)c(C)cc1Cl` [Example 87, 4-chloro-N-(3-(5-((dimethylamino)methyl)thiazol-2-yl)phenyl)-2,5-dimethylbenzenesulfonamide]: the activity was half-maximal at 6 µM (AC50).

`Cc1cc(S(=O)(=O)Nc2cccc(-c3ncc(CO)s3)c2)c(C)cc1Cl` [Example 89, 4-chloro-N-(3-(5-(hydroxymethyl)thiazol-2-yl)phenyl)-2,5-dimethylbenzenesulfonamide] returned an AC50 of 4 µM. This AC50 lies about 1.5-fold lower than the previous one.
